Experimental data published in patent publication US8440708B2, “Triazole-substituted arylamides as P2X3 and P2X2/3 antagonists” (Roche Palo Alto LLC, priority 2007, dated 2013).

Tests used:
[1] = molecular target: T1, rat P2X3 receptor (Rattus norvegicus, UniProt P49654); experiment: P2X3/P2X2/3 FLIPR (Fluorometric Imaging Plate Reader) Assay, P2X3; assay type: cell-based; conditions: CHO-K1 cells transfected with rat P2X3; agonist α,β-meATP 1 μM; Table 1; read-out: P2X3 pKi (converted)
T1 construct: expressed in transfected cells; host or cells: CHO-K1
T1 sequence (P49654 1-397): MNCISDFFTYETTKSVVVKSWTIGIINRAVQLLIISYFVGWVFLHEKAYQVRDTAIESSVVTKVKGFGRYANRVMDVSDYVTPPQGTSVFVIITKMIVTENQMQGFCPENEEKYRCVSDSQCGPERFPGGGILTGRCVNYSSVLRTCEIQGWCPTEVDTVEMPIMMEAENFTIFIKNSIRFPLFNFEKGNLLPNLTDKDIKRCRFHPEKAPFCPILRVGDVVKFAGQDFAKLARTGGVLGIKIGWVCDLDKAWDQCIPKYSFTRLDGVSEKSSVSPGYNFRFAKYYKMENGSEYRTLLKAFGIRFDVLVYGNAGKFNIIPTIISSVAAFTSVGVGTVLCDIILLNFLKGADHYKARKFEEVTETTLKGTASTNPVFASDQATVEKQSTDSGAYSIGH
Description: (§1) P2X3/P2X2/3 FLIPR (Fluorometric Imaging Plate Reader) Assay
(§2) CHO-K1 cells were transfected with cloned rat P2X3 or human P2X2/3 receptor subunits and passaged in flasks. 18-24 hours before the FLIPR experiment, cells were released from their flasks, centrifuged, and resuspended in nutrient medium at 2.5×10^5 cells/ml. The cells were aliquoted into black-walled 96-well plates at a density of 50,000 cells/well and incubated overnight in 5% CO2 at 37° C. On the day of the experiment, cells were washed in FLIPR buffer (calcium- and magnesium-free Hank's balanced salt solution, 10 mM HEPES, 2 mM CaCl2, 2.5 mM probenecid; FB). Each well received 100 μl FB and 100 μl of the fluorescent dye Fluo-3 AM [2 μM final conc.]. After a 1 hour dye loading incubation at 37° C., the cells were washed 4 times with FB, and a final 75 μl/well FB was left in each well.
(§3) Test compounds (dissolved in DMSO at 10 mM and serially diluted with FB) or vehicle were added to each well (25 μl of a 4× solution) and allowed to equilibrate for 20 minutes at room temperature. The plates were then placed in the FLIPR and a baseline fluorescence measurement (excitation at 488 nm and emission at 510-570 nm) was obtained for 10 seconds before a 100 μl/well agonist or vehicle addition. The agonist was a 2× solution of α,β-meATP producing a final concentration of 1 μM (P2X3) or 5 μM (P2X2/3). Fluorescence was measured for an additional 2 minutes at 1 second intervals after agonist addition. A final addition of ionomycin (5 μM, final concentration) was made to each well of the FLIPR test plate to establish cell viability and maximum fluorescence of dye-bound cytosolic calcium. Peak fluorescence in response to the addition of α,β-meATP (in the absence and presence of test compounds) was measured and inhibition curves generated using nonlinear regression. PPADS, a standard P2X antagonist, was used as a positive control.

[2] = molecular target: T2, human P2X2/3 receptor (Homo sapiens, UniProt P56373+Q9UBL9); experiment: P2X3/P2X2/3 FLIPR (Fluorometric Imaging Plate Reader) Assay, P2X2/3; assay type: cell-based; conditions: CHO-K1 cells transfected with human P2X2/3; agonist α,β-meATP 5 μM; Table 1; read-out: P2X2/3 pKi (converted)
T2 construct: expressed in transfected cells; host or cells: CHO-K1
T2 sequence (Q9UBL9 1-471): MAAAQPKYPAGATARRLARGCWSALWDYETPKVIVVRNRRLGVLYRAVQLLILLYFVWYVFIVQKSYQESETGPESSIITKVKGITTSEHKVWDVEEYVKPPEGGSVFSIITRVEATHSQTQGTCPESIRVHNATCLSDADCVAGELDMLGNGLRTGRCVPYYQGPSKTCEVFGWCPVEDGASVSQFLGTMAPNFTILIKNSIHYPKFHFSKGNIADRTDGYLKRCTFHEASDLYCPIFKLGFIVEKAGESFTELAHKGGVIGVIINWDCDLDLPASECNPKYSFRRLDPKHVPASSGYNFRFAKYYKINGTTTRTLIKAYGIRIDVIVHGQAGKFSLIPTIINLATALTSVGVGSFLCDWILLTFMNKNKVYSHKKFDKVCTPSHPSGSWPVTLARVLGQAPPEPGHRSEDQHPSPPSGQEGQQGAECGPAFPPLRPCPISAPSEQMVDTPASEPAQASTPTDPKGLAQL
T2 sequence (P56373 1-397): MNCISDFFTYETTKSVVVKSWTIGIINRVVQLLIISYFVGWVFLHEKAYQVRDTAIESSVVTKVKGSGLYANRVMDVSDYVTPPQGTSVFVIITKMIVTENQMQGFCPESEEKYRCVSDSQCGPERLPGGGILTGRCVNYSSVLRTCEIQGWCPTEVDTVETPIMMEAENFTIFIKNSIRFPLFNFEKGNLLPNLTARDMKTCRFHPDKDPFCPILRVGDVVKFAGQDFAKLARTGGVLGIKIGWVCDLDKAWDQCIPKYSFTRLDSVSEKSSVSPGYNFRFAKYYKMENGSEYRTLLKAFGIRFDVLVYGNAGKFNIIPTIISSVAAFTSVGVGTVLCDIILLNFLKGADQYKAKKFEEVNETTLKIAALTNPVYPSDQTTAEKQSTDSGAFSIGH
Description: as §1, §2, §3

Row | SMILES | Ki [1] [nM] | Ki [2] [nM]
1 | COCC(C)NC(=O)c1cc(-c2ccc(C)cc2)cc(-n2ccnn2)c1 (centres unmarked) [Compound 1, 4′-Methyl-5-[1,2,3]triazol-1-yl-biphenyl-3-carboxylic acid (2-methoxy-1-methyl-ethyl)-amide] | 1820 | 
2 | COCC(C)NC(=O)c1cc(-c2ccc(C)cc2)cc(-n2cncn2)c1 (centres unmarked) [Compound 2, 4′-Methyl-5-[1,2,4]triazol-1-yl-biphenyl-3-carboxylic acid (2-methoxy-1-methyl-ethyl)-amide] | 1450 | 10200
3 | COCC(C)NC(=O)c1cc(-c2ccc(C)cc2)cc(-n2nccn2)c1 (centres unmarked) [Compound 3, 4′-Methyl-5-[1,2,3]triazol-2-yl-biphenyl-3-carboxylic acid (2-methoxy-1-methyl-ethyl)-amide] | 2950 | 
4 | Cc1ccc(-c2cc(C(=O)NC(C)c3cnccn3)cc(-c3nnc4ccccn34)c2)c(F)c1 (centres unmarked) [Compound 4, 2′-Fluoro-4′-methyl-5-[1,2,4]triazolo[4,3-a]pyridin-3-yl-biphenyl-3-carboxylic acid (1-pyrazin-2-yl-ethyl)-amide] | 437 | 1230
5 | COCC(C)NC(=O)c1cc(-c2ccc(C)cc2)cc(-n2nncc2C)c1 (centres unmarked) [Compound 5, 4′-Methyl-5-(5-methyl-[1,2,3]triazol-1-yl)-biphenyl-3-carboxylic acid (2-methoxy-1-methyl-ethyl)-amide] | 603 | 2820
6 | COC[C@@H](C)NC(=O)c1cc(-c2ccc(C)cc2)cc(-n2nncc2C)c1 [Compound 6, 4′-Methyl-5-(5-methyl-[1,2,3]triazol-1-yl)-biphenyl-3-carboxylic acid ((R)-2-methoxy-1-methyl-ethyl)-amide] | 269 | 2040
7 | Cc1ccc(-c2cc(C(=O)NC(C)c3cnccn3)cc(-n3nncc3C)c2)cc1 (centres unmarked) [Compound 7, 4′-Methyl-5-(5-methyl-[1,2,3]triazol-1-yl)-biphenyl-3-carboxylic acid (1-pyrazin-2-yl-ethyl)-amide] | 3.72 | 191
8 | Cc1ccc(-c2cc(C(=O)N[C@@H](C)CO)cc(-n3nncc3C(C)C)c2)cc1 [Compound 8, 5-(5-Isopropyl-[1,2,3]triazol-1-yl)-4′-methyl-biphenyl-3-carboxylic acid ((S)-2-hydroxy-1-methyl-ethyl)-amide] | 3.72 | 309
9 | COCC(C)NC(=O)c1cc(-c2ccc(C)cc2)cc(-n2nncc2C(C)C)c1 (centres unmarked) [Compound 9, 5-(5-Isopropyl-[1,2,3]triazol-1-yl)-4′-methyl-biphenyl-3-carboxylic acid (2-methoxy-1-methyl-ethyl)-amide] | 18.6 | 501
10 | COC[C@@H](C)NC(=O)c1cc(-c2ccc(C)cc2)cc(-n2nncc2C(C)C)c1 [Compound 10, 5-(5-Isopropyl-[1,2,3]triazol-1-yl)-4′-methyl-biphenyl-3-carboxylic acid ((R)-2-methoxy-1-methyl-ethyl)-amide] | 7.41 | 324
11 | Cc1ccc(-c2cc(C(=O)NC(C)CO)cc(-n3nncc3C(C)C)c2)cc1 (centres unmarked) [Compound 11, 5-(5-Isopropyl-[1,2,3]triazol-1-yl)-4′-methyl-biphenyl-3-carboxylic acid (2-hydroxy-1-methyl-ethyl)-amide] | 5.25 | 257
12 | Cc1ccc(-c2cc(C(=O)NC(C)c3cnccn3)cc(-n3nncc3C(C)C)c2)cc1 (centres unmarked) [Compound 12, 5-(5-Isopropyl-[1,2,3]triazol-1-yl)-4′-methyl-biphenyl-3-carboxylic acid (1-pyrazin-2-yl-ethyl)-amide] | 7.94 | 31.6
13 | Cc1ccc(-c2cc(C(=O)N[C@@H](C)CO)cc(-n3nncc3C)c2)cc1 [Compound 13, 4′-Methyl-5-(5-methyl-[1,2,3]triazol-1-yl)-biphenyl-3-carboxylic acid ((S)-2-hydroxy-1-methyl-ethyl)-amide] | 75.9 | 8130
14 | COCC(C)NC(=O)c1cc(-c2ccc(C)cc2)cc(-n2ncnc2C(C)C)c1 (centres unmarked) [Compound 14, 5-(5-Isopropyl-[1,2,4]triazol-1-yl)-4′-methyl-biphenyl-3-carboxylic acid (2-methoxy-1-methyl-ethyl)-amide] | 12 | 1020
15 | COC[C@@H](C)NC(=O)c1cc(-c2ccc(C)cc2)cc(-n2ncnc2C(C)C)c1 [Compound 15, 5-(5-Isopropyl-[1,2,4]triazol-1-yl)-4′-methyl-biphenyl-3-carboxylic acid ((R)-2-methoxy-1-methyl-ethyl)-amide] | 10.2 | 813
16 | COC[C@@H](C)NC(=O)c1cc(-c2ccc(C)cc2)cc(-n2nc(C)nc2C(C)C)c1 [Compound 27, 5-(5-Isopropyl-3-methyl-[1,2,4]triazol-1-yl)-4′-methyl-biphenyl-3-carboxylic acid ((R)-2-methoxy-1-methyl-ethyl)-amide] | 100 | 
17 | CCn1cnnc1-c1cc(C(=O)N[C@@H](C)CO)cc(-c2ccc(C)cc2)c1 [Compound 42, 5-(4-Ethyl-4H-[1,2,4]triazol-3-yl)-4′-methyl-biphenyl-3-carboxylic acid ((S)-2-hydroxy-1-methyl-ethyl)-amide] | 117 | 
18 | Cc1ccc(-c2cc(C(=O)NC3CC3)cc(-n3ncnc3C)c2)nc1 [Compound 68, N-Cyclopropyl-3-(5-methyl-pyridin-2-yl)-5-(5-methyl-[1,2,4]triazol-1-yl)-benzamide] | 170 | 
19 | Cc1ccc(-c2cc(C(=O)N[C@@H](C)CO)cc(-n3ncnc3CC(F)F)c2)nc1 [Compound 146, 3-[5-(2,2-Difluoro-ethyl)-[1,2,4]triazol-1-yl]-N-((S)-2-hydroxy-1-methyl-ethyl)-5-(5-methyl-pyridin-2-yl)-benzamide] | 17.8 | 
20 | COCCc1nc(C)nn1-c1cc(C(=O)NCc2cnc(C)cn2)cc(-c2ccc(C)cn2)c1 [Compound 154, 3-[5-(2-Methoxy-ethyl)-3-methyl-[1,2,4]triazol-1-yl]-N-(5-methyl-pyrazin-2-ylmethyl)-5-(5-methyl-pyridin-2-yl)-benzamide] | 151 | 
21 | Cc1ccc(-c2cc(C(=O)N[C@@H](C)CO)cc(-n3ncnc3C(F)(F)F)c2F)nc1 [Compound 165, 4-Fluoro-N-((S)-2-hydroxy-1-methyl-ethyl)-3-(5-methyl-pyridin-2-yl)-5-(5-trifluoromethyl-[1,2,4]triazol-1-yl)-benzamide] | 74.1 | 
22 | Cc1ccc(-c2cc(C(=O)NC(C)c3cnccn3)cc(-n3ncnc3C(F)(F)F)c2F)nc1 (centres unmarked) [Compound 170, 4-Fluoro-3-(5-methyl-pyridin-2-yl)-N-(1-pyrazin-2-yl-ethyl)-5-(5-trifluoromethyl-[1,2,4]triazol-1-yl)-benzamide] | 3.72 | 
